Test results reported in US8993041B2, “Taste masked active pharmaceutical powder compositions and processes for making them” (New Jersey Institute of Technology, priority 2012, dated 2015).

Key:
[1] = Angle of repose (AoR/AOR) of powder; assay type: physicochemical
Text: Both of these ibuprofen powders could not be fluidized sufficiently prior to coating, yet both of the coated ibuprofen particles were well fluidized after dry coating.
The operating conditions for coating step 2 may be established by a skilled person giving consideration, for example, to particle agglomeration and providing reduced angle of repose (AOR) values for the coated API powder. The degree of particle agglomeration may be determined by measuring the size of the coated particles in SEM images. The degree of agglomeration may also be estimated using the dispersion pressure titration in the Rodos/Helos system (Rodos and Helos, Sympatec, Lawrenceville, N.J., USA). A discussion of the pressure titration may be found in Han, X., Ghoroi, C., To, D., Chen, Y., Davë, R., “Simultaneous micronization and surface modification for improvement of flow and dissolution of drug particles (2011).” International Journal of Pharmaceutics, vol. 415, pp. 185-195, which is incorporated in its entirety by reference. The AOR may be measured using the procedure of ASTM D6393-99, “Bulk Solids Characterization by CARR Indices.” For example, when the Comil is used, the impeller speed may be optimized to reduce the agglomeration (FIG. 3) as higher impeller speed […] agglomerate size for the silica coated API powders.
M5P hydrophilic silica has a particle size of 20 nm and is manufactured by Cabot

[2] = Flow function coefficient (FFC), shear cell of FT 4 tester; assay type: physicochemical
[3] = finer ibuprofen powder, median size about 41 micron

- AoR [1, 3]: about 58 degrees
- AOR ([1]; flow properties of ibuprofen before and after dry coating with silica): 55 °
- AoR ([1]; ibuprofen median particle size about 74 micron, Hosokawa Powder Tester, ASTM D6393-08): about 55 degrees
- FFC [2, 3]: about 2.8
- FFC ([2]; ibuprofen median particle size about 74 micron, pre-consolidation of 3 kPa): about 5
Compound: CC(C)Cc1ccc(C(C)C(=O)O)cc1 (centres unmarked) [ibuprofen]
